Source: article PMC11079024, “Identification of a family of species-selective complex I inhibitors as potential anthelmintics” (Nature Communications, 2024)
pIC50: −log10 of the molar value.

System: L1 wild-type C. elegans
Test: not given
Conditions: 50 μM; […]; hit = relative motility below 0.25 3 hours after removal of KCN

Compound	Screen "Hit"
Cc1ccc(CSCc2nc3ccccc3[nH]2)cc1 [Compound 7121781]	Y (hits were identified as compounds that reduced relative motility below 0.25 (75% reduction))
Cc1ccc(OCCn2cnc3ccccc32)cc1 [Compound 5671538]	Y (hits were identified as compounds that reduced relative motility below 0.25 (75% reduction))

Same assay, conditions: 50 μM; […]; worm motility 3 hours after removal of KCN, relative to DMSO controls; single biological replicate

Compound	Relative Motility
Cc1ccc(CSCc2nc3ccccc3[nH]2)cc1 [Compound 7121781]	0.077

Same assay, conditions: Dose 0.2 µM; mean of at least three biological replicates

Compound	C. elegans KCN Survival
Cc1ccc(CSCc2nc3ccccc3[nH]2)cc1 [Compound 7121781]	1.008
Cc1ccc(OCCn2cnc3ccccc32)cc1 [Compound 5671538]	0.927

Same assay, conditions: Dose 0.39 µM

Compound	C. elegans KCN Survival
Cc1ccc(CSCc2nc3ccccc3[nH]2)cc1 [Compound 7121781]	0.850
Cc1ccc(OCCn2cnc3ccccc32)cc1 [Compound 5671538]	0.931

Same assay, conditions: Dose 1.56 µM

Compound	C. elegans KCN Survival
Cc1ccc(CSCc2nc3ccccc3[nH]2)cc1 [Compound 7121781]	0.802
Cc1ccc(OCCn2cnc3ccccc32)cc1 [Compound 5671538]	0.891

Same assay, conditions: Dose 3.13 µM

Compound	C. elegans KCN Survival
Cc1ccc(CSCc2nc3ccccc3[nH]2)cc1 [Compound 7121781]	0.857
Cc1ccc(OCCn2cnc3ccccc32)cc1 [Compound 5671538]	0.844

Same assay, conditions: Dose 6.25 µM

Compound	C. elegans KCN Survival
Cc1ccc(CSCc2nc3ccccc3[nH]2)cc1 [Compound 7121781]	0.615
Cc1ccc(OCCn2cnc3ccccc32)cc1 [Compound 5671538]	0.828

Same assay, conditions: Dose 12.5 µM

Compound	C. elegans KCN Survival
Cc1ccc(CSCc2nc3ccccc3[nH]2)cc1 [Compound 7121781]	0.348
Cc1ccc(OCCn2cnc3ccccc32)cc1 [Compound 5671538]	0.784

Same assay, conditions: Dose 25 µM

Compound	C. elegans KCN Survival
Cc1ccc(CSCc2nc3ccccc3[nH]2)cc1 [Compound 7121781]	0.053
Cc1ccc(OCCn2cnc3ccccc32)cc1 [Compound 5671538]	0.550

Same assay, conditions: Dose 50 µM

Compound	C. elegans KCN Survival
Cc1ccc(CSCc2nc3ccccc3[nH]2)cc1 [Compound 7121781]	0.003
Cc1ccc(OCCn2cnc3ccccc32)cc1 [Compound 5671538]	0.033

Same assay, conditions: Dose 100 µM

Compound	C. elegans KCN Survival
Cc1ccc(CSCc2nc3ccccc3[nH]2)cc1 [Compound 7121781]	0.000
Cc1ccc(OCCn2cnc3ccccc32)cc1 [Compound 5671538]	0.00256

Biological target: C. elegans (N2) complex I (NADH:ubiquinone oxidoreductase) (Caenorhabditis elegans, UniProt P24887+Q93873+Q94360)
Sequence (Q94360 17-199): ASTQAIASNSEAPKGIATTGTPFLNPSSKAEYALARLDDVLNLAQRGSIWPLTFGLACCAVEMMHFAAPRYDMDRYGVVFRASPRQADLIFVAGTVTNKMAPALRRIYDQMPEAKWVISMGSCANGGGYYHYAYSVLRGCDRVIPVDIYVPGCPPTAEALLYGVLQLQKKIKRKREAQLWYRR
Sequence (P24887 whole entry): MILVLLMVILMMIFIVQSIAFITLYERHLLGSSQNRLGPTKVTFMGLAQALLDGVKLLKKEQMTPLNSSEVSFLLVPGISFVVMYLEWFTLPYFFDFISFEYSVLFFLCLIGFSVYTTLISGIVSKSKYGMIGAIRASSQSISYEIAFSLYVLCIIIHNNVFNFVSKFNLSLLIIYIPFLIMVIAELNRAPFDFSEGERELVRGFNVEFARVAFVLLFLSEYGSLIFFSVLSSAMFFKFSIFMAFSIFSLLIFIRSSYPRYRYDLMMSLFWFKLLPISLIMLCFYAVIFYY
Sequence (Q93873 31-482): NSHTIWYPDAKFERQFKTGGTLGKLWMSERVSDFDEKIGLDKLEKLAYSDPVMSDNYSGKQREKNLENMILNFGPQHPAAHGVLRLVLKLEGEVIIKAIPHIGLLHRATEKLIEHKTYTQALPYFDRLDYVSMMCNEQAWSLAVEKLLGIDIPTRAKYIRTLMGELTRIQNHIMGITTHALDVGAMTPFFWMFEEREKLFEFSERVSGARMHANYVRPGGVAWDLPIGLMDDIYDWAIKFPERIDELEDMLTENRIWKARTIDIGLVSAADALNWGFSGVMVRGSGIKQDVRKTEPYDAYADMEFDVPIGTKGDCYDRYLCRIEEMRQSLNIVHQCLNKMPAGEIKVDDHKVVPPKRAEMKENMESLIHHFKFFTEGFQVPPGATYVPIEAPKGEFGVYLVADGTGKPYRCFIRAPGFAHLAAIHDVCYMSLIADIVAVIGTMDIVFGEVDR
Test: biochemical
Format: biochemical
Conditions: Dose 0.0001 µM; read-out: C. elegans mitochondrial complex I activity
Procedure, shortened: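 Activity expressed as percent of solvent control. Complex I rate came from DCIP reduction at 600 nm (initial linear slope, 15 min) with NADH and decylubiquinone as substrates, plus antimycin A and KCN, in pH 7.5 KPi/BSA buffer. Isolated, thrice freeze-thawed mitochondria used at 0.2 mg/mL.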

Compound	activity at 0.0001 µM
Cc1ccc(CSCc2nc3ccccc3[nH]2)cc1 [Compound 7121781]	100%
Cc1ccc(OCCn2cnc3ccccc32)cc1 [Compound 5671538]	97.2%

Same assay, conditions: Dose 0.0005 µM; read-out: C. elegans mitochondrial complex I activity

Compound	activity at 0.0005 µM
Cc1ccc(CSCc2nc3ccccc3[nH]2)cc1 [Compound 7121781]	95.4%
Cc1ccc(OCCn2cnc3ccccc32)cc1 [Compound 5671538]	96.5%

Same assay, conditions: Dose 0.001 µM; read-out: C. elegans mitochondrial complex I activity

Compound	activity at 0.001 µM
Cc1ccc(CSCc2nc3ccccc3[nH]2)cc1 [Compound 7121781]	94.3%
Cc1ccc(OCCn2cnc3ccccc32)cc1 [Compound 5671538]	95.3%

Same assay, conditions: Dose 0.0025 µM; read-out: C. elegans mitochondrial complex I activity

Compound	activity at 0.0025 µM
Cc1ccc(CSCc2nc3ccccc3[nH]2)cc1 [Compound 7121781]	98%
Cc1ccc(OCCn2cnc3ccccc32)cc1 [Compound 5671538]	106%

Same assay, conditions: Dose 0.005 µM; read-out: C. elegans mitochondrial complex I activity

Compound	activity at 0.005 µM
Cc1ccc(CSCc2nc3ccccc3[nH]2)cc1 [Compound 7121781]	98.1%
Cc1ccc(OCCn2cnc3ccccc32)cc1 [Compound 5671538]	90.9%

Same assay, conditions: Dose 0.013 µM; read-out: C. elegans mitochondrial complex I activity

Compound	activity at 0.013 µM
Cc1ccc(CSCc2nc3ccccc3[nH]2)cc1 [Compound 7121781]	104%
Cc1ccc(OCCn2cnc3ccccc32)cc1 [Compound 5671538]	104%

Same assay, conditions: Dose 0.025 µM; read-out: C. elegans mitochondrial complex I activity

Compound	activity at 0.025 µM
Cc1ccc(CSCc2nc3ccccc3[nH]2)cc1 [Compound 7121781]	99.3%
Cc1ccc(OCCn2cnc3ccccc32)cc1 [Compound 5671538]	98%

Same assay, conditions: Dose 0.063 µM; read-out: C. elegans mitochondrial complex I activity

Compound	activity at 0.063 µM
Cc1ccc(CSCc2nc3ccccc3[nH]2)cc1 [Compound 7121781]	89.7%
Cc1ccc(OCCn2cnc3ccccc32)cc1 [Compound 5671538]	92.5%

Same assay, conditions: Dose 0.125 µM; read-out: C. elegans mitochondrial complex I activity

Compound	activity at 0.125 µM
Cc1ccc(CSCc2nc3ccccc3[nH]2)cc1 [Compound 7121781]	95.8%
Cc1ccc(OCCn2cnc3ccccc32)cc1 [Compound 5671538]	91.2%

Same assay, conditions: Dose 0.313 µM; read-out: C. elegans mitochondrial complex I activity

Compound	activity at 0.313 µM
Cc1ccc(CSCc2nc3ccccc3[nH]2)cc1 [Compound 7121781]	87.2%
Cc1ccc(OCCn2cnc3ccccc32)cc1 [Compound 5671538]	90%

Same assay, conditions: Dose 0.625 µM; read-out: C. elegans mitochondrial complex I activity

Compound	activity at 0.625 µM
Cc1ccc(CSCc2nc3ccccc3[nH]2)cc1 [Compound 7121781]	99.9%
Cc1ccc(OCCn2cnc3ccccc32)cc1 [Compound 5671538]	88.7%

Same assay, conditions: Dose 1.5 µM; read-out: C. elegans mitochondrial complex I activity

Compound	activity at 1.5 µM
Cc1ccc(CSCc2nc3ccccc3[nH]2)cc1 [Compound 7121781]	94%
Cc1ccc(OCCn2cnc3ccccc32)cc1 [Compound 5671538]	79.2%

Same assay, conditions: Dose 3 µM; read-out: C. elegans mitochondrial complex I activity

Compound	activity at 3 µM
Cc1ccc(CSCc2nc3ccccc3[nH]2)cc1 [Compound 7121781]	73.4%
Cc1ccc(OCCn2cnc3ccccc32)cc1 [Compound 5671538]	75%

Same assay, conditions: Dose 15 µM; read-out: C. elegans mitochondrial complex I activity

Compound	activity at 15 µM
Cc1ccc(CSCc2nc3ccccc3[nH]2)cc1 [Compound 7121781]	71.1%
Cc1ccc(OCCn2cnc3ccccc32)cc1 [Compound 5671538]	18.9%

Same assay, conditions: Dose 37.5 µM; read-out: C. elegans mitochondrial complex I activity

Compound	activity at 37.5 µM
Cc1ccc(CSCc2nc3ccccc3[nH]2)cc1 [Compound 7121781]	43.5%
Cc1ccc(OCCn2cnc3ccccc32)cc1 [Compound 5671538]	23.9%

Same assay, conditions: Dose 75 µM; read-out: C. elegans mitochondrial complex I activity

Compound	activity at 75 µM
Cc1ccc(CSCc2nc3ccccc3[nH]2)cc1 [Compound 7121781]	23.3%
Cc1ccc(OCCn2cnc3ccccc32)cc1 [Compound 5671538]	13.8%

Same assay, conditions: in vitro complex I dose response on C. elegans mitochondria; average of at least two biological replicates; fit in R (DRC); read-out: IC50 C. elegans complex I

Compound	pIC50
Cc1ccc(CSCc2nc3ccccc3[nH]2)cc1 [Compound 7121781]	4.54
Cc1ccc(OCCn2cnc3ccccc32)cc1 [Compound 5671538]	5.27

Same assay, conditions: log10 of IC50 in µM; C. elegans mitochondria

Compound	Log IC50 C. elegans complex I
Cc1ccc(CSCc2nc3ccccc3[nH]2)cc1 [Compound 7121781]	1.46 µM
Cc1ccc(OCCn2cnc3ccccc32)cc1 [Compound 5671538]	0.73 µM

Same assay, conditions: wild-type C. elegans mitochondria; read-out: C. elegans Complex I IC50

Compound	pIC50
Cc1ccc(CSCc2nc3ccccc3[nH]2)cc1 [Compound 7121781]	4.54
Cc1ccc(OCCn2cnc3ccccc32)cc1 [Compound 5671538]	5.27

System: not listed separately
Test: in vitro
Conditions: human

Compound	CC50 at 2 days
Cc1ccc(CSCc2nc3ccccc3[nH]2)cc1 [Compound 7121781]	74.2 µM

Same assay, conditions: human, HEK293 Cell Viability Assay LC50, HEK293 cells; estimated from fitted dose-response curves

Compound	CC50 at 2 days
Cc1ccc(OCCn2cnc3ccccc32)cc1 [Compound 5671538]	> 100 µM

Same assay, conditions: human, HEK293 cells (Flp-In-293), HEK293 viability, Dose 3.13 µM

Compound	viability at 2 days, 3.13 µM
Cc1ccc(OCCn2cnc3ccccc32)cc1 [Compound 5671538]	92.2%

Same assay, conditions: human, HEK293 cells (Flp-In-293), HEK293 viability, Dose 6.25 µM

Compound	viability at 2 days, 6.25 µM
Cc1ccc(OCCn2cnc3ccccc32)cc1 [Compound 5671538]	98.5%

Same assay, conditions: human, HEK293 cells (Flp-In-293), HEK293 viability, Dose 12.5 µM

Compound	viability at 2 days, 12.5 µM
Cc1ccc(CSCc2nc3ccccc3[nH]2)cc1 [Compound 7121781]	90%
Cc1ccc(OCCn2cnc3ccccc32)cc1 [Compound 5671538]	97.1%

Same assay, conditions: human, HEK293 cells (Flp-In-293), HEK293 viability, Dose 25 µM

Compound	viability at 2 days, 25 µM
Cc1ccc(CSCc2nc3ccccc3[nH]2)cc1 [Compound 7121781]	91.3%
Cc1ccc(OCCn2cnc3ccccc32)cc1 [Compound 5671538]	96.2%

Same assay, conditions: human, HEK293 cells (Flp-In-293), HEK293 viability, Dose 50 µM

Compound	viability at 2 days, 50 µM
Cc1ccc(CSCc2nc3ccccc3[nH]2)cc1 [Compound 7121781]	64.3%
Cc1ccc(OCCn2cnc3ccccc32)cc1 [Compound 5671538]	96.4%

Same assay, conditions: human, HEK293 cells (Flp-In-293), HEK293 viability, Dose 100 µM

Compound	viability at 2 days, 100 µM
Cc1ccc(CSCc2nc3ccccc3[nH]2)cc1 [Compound 7121781]	28.3%
Cc1ccc(OCCn2cnc3ccccc32)cc1 [Compound 5671538]	61.4%

Same assay, conditions: human, HEK293 viability, Dose 3.13 µM

Compound	viability
Cc1ccc(CSCc2nc3ccccc3[nH]2)cc1 [Compound 7121781]	86.1%

Same assay, conditions: human, HEK293 viability, Dose 6.25 µM

Compound	viability
Cc1ccc(CSCc2nc3ccccc3[nH]2)cc1 [Compound 7121781]	87.2%
